Results taken from patent US5804593A, “α-Amino sulfonyl hydroxamic acids as matrix metalloproteinase inhibitors” (Pharmacia & Upjohn Company, priority 1997, dated 1998).

Each compound was assayed against Gelatinase (assay: particle concentration fluorescence assay of MMP inhibition in vitro). Conditions: fluorescein/biotin-labelled substrate, avidin-coated particles, room temperature, pH 7.5.
Assay type: biochemical
Procedure: Inhibitory activity is evaluated in one or more of the MMP enzymes (stromelysin, gelatinase, and collagenase) in vitro using particle concentration fluorescence assay. An inhibitor binds to MMP enzymes which prevents the degradation of a substrate by stromelysin, gelatinase, or collagenase. The substrate has attached to it a fluorescein and a biotin moiety. The intact substrate then binds to an avidin-coated particle via the biotin moiety. Once the particle is washed and dried, a fluorescent signal is generated since the fluorescent group is attached to the particle. Without an inhibitor present, the substrate is degraded by MMP enzymes and the fluorescein group is removed, therefore, no fluorescent signal can be detected. Testing compounds are dissolved in DMSO to the desired concentration, then the solutions are diluted to 1:5 with MMP buffer (50 mM Tris-HCl, pH 7.5; 150 mM NaCl; 0.02% NaN3). Serial two-fold dilutions of each compound are prepared. A concentrated, activated enzyme solution is transferred into each plate of the testing compounds, and the mixture is incubated at room temperature for 15 minutes. Thawed MMP substrate is then added into all plates, and the plates are incubated in the dark for 1-3 hours at room temperature. At this point, the substrate mixture is mixed with 0.1% avidin-coated polystyrene particles. After 15 minutes, the fluorescence values are measured following filtration and washing of the beads. Ki values are then calculated.

| Structure (SMILES) | Ki [nM] |
| --- | --- |
| COc1ccc(S(=O)(=O)N[C@H](Cc2c[nH]c3ccccc23)C(=O)NO)cc1 [Example 1, N-hydroxy-2(R)-[(4-methoxybenzenesulfonyl)amino]-3-(3-indolyl)-propanamide] | 7.81 |
| O=C(NO)[C@@H](Cc1c[nH]c2ccccc12)NS(=O)(=O)c1ccc(Br)cc1 [Example 5, N-hydroxy-2(R)-[(4-bromobenzenesulfonyl)amino]-3-(3-indolyl)-propanamide] | 2.6 |
| CCCCCCCCS(=O)(=O)N[C@H](Cc1c[nH]c2ccccc12)C(=O)NO [Example 6, N-hydroxy-2(R)-[(n-octylsulfonyl)amino]-3-(3-indolyl)-propanamide] | 12.1 |
| COc1ccc(S(=O)(=O)N[C@H](Cc2ccccc2)C(=O)NO)cc1 [Example 4, N-hydroxy-2(R)-[(4-methoxybenzenesulfonyl)-amino]-3-phenyl-propanamide] | 7.23 |
| COc1ccc(S(=O)(=O)N[C@@H](C(=O)NO)c2ccccc2)cc1 [Example 7, N-hydroxy-2(R)-[(4-methoxybenzenesulfonyl)amino]-2-phenyl acetamide] | 3.3 |

Further compounds by falling Ki, results first:

| Ki [nM] | Structure (SMILES) |
| --- | --- |
| 82 | CC(C)[C@@H](NS(=O)(=O)c1ccccc1)C(=O)NO [Example 9, N-hydroxy-2(R)-[(benzenesulfonyl)amino]-3-methyl butanamide] |
| 79 | O=C(NO)[C@@H](Cc1c[nH]c2ccccc12)NS(=O)(=O)c1ccc(F)cc1 [Example 3, N-hydroxy-2(R)-[(4-fluorobenzenesulfonyl)-amino]-3-(3-indolyl)-propanamide] |
| 14.2 | O=C(NO)[C@@H](Cc1c[nH]c2ccccc12)NS(=O)(=O)c1ccccc1 [Example 2, N-hydroxy-2(R)-[(benzenesulfonyl)amino]-3-(3-indolyl)-propanamide] |
| 9.8 | CCC(C)(C)C(NS(=O)(=O)c1ccc(OC)cc1)C(=O)NO (stereo not drawn) [Example 10, N-Hydroxy-2-[(4-methoxybenzenesulfonyl)-amino]-3,3-dimethyl pentanamide] |
